# Measurements from ChEMBL document CHEMBL1201862, “PubChem BioAssay data set” (2004).
# The source made the active and inactive calls.
# Key:
# Type in all cases: functional
# [1] = target: Voltage-dependent T-type calcium channel subunit alpha-1H (Homo sapiens, UniProt O95180);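 also: channel activity triggered by adding a high calcium stimulation buffer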
# [2] = target: T1, Heat shock factor protein 1 (Mus musculus, UniProt P38532); assay: decrease of HSF1-responsive luciferase luminescence – cell-based, NIH3T3, dose retest, confirmation (AID 2382);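 also: NIH3T3 fibroblasts with HSF1-driven luciferase reporter stressed by proteasome inhibitor MG132; luminescence from HSF1-driven luciferase expression after 8 hours of MG132 stress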
# T1 sequence (P38532 whole entry): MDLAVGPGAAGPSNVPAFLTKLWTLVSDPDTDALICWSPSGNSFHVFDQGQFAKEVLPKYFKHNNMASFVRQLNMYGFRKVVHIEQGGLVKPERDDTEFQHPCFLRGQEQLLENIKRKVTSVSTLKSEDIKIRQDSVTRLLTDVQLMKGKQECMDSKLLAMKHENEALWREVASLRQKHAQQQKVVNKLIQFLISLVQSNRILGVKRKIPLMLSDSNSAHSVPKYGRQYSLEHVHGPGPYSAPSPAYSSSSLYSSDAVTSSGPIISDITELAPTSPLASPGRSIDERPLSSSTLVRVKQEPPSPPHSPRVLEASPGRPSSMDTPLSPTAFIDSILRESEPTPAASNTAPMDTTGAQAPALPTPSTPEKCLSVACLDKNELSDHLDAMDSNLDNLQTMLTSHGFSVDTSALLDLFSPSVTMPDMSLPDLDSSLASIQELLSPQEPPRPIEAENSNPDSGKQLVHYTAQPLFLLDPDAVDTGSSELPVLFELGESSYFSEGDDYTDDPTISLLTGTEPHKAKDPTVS
# INS1 = assay: INS-1E survival protection against cytokine death – cell-based, luminescence, retest, dose response (AID 449756); details: Rattus norvegicus;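 also: cell death triggered by IL-1 beta plus TNF-alpha plus IFN-gamma mixture; protective hits raise ATP signal compared with cytokine alone wells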
# [3] = non-specific 3'UTR reporter inhibition in Clone20-Shn3RL – cell-based, Renilla luciferase, cherry-picked, counter-screen for Shn3 inhibitor project, dose response (AID 624133)
# [4] = reduction of Shn3 3'UTR-driven luciferase in osteoblasts – cell-based, Clone20 osteoblasts, firefly luciferase, cherry-picked, dose response (AID 624132);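 also: firefly luciferase luminescence from reporter carrying the Shn3 3'UTR in osteoblasts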
# [5] = viability of PTEN-deleted HCT116 cells – cell-based, HCT116 PTEN knockout, dose response (AID 1047);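 also: HCT116 colon tumor cells with PTEN knocked out; cells exposed to compound for 60 hours before readout; potency for loss of cell viability measured by luminescence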
# [6] = target: T2, Calpain-2 catalytic subunit (Sus scrofa, UniProt P43367); assay: m-calpain protease blockers, concentration series – biochemical, fluorogenic peptide substrate, dose response (AID 1420)
# T2 sequence (P43367 whole entry): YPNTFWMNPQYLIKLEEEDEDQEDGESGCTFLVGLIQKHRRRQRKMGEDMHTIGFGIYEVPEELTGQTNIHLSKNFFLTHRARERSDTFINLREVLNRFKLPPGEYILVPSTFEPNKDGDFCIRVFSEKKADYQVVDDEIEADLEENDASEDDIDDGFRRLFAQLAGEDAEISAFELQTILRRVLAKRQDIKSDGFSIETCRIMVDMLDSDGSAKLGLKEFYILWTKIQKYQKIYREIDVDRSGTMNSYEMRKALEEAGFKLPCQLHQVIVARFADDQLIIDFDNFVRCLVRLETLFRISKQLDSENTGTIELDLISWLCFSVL
# [7] = viability of HCT116 lacking mutant beta-catenin – cell-based, human colon tumor, dose response (AID 1045);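 also: HCT116 colon tumor cells with beta catenin knocked out; cells exposed to compound for 60 hours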
# [8] = target: T3, Polyadenylate-binding protein 1 (Homo sapiens, UniProt P11940); assay: MLLE binding blockers, Cy5 peptide tracer – biochemical, fluorescence polarization, Cy5-PAM2 peptide, secondary, miRNA deadenylation inhibitor project, dose response (AID 602260); details: read-out: IC50_Mean
# [9] = target: T3, Polyadenylate-binding protein 1; assay: MLLE domain peptide-binding blockers, IC50 – biochemical, fluorescence polarization, FITC-PAM2 peptide, dose response (AID 602259); details: read-out: IC50_Mean
# [10] = viability of uninfected HEp-2 cells – cell-based, HTS, cytotoxicity control for RSV inhibitor project, dose response (AID 2410); details: human respiratory syncytial virus
# [11] = Luminescence Cell-Based Dose Confirmation HTS to Identify Activators of 5'UTR Stem-Loop Driven Alpha-Synuclein mRNA Translation in H4 Neuroglioblastoma Cells. [Related pubchem assays: 1829 (Project Summary), 1814 (Primary HTS)]
# [12] = Luminescence Cell-Based Dose Response HTS to Identify Activators of Luciferase Translation or Activity in H4 […] Cells. [Related pubchem assays: 1829 (Project Summary), 1814 (Primary HTS)]
# H4 = assay: Luminescence Cell-Based Dose Response HTS to Identify Activators of 5'UTR Stem-Loop Driven Prion Protein mRNA Translation in H4 Neuroglioblastoma Cells. [Related pubchem assays: 1829 (Project Summary), 1814 (Primary HTS)]; details: Homo sapiens
# [13] = target: T4, Replicative DNA helicase DnaB (Mycobacterium tuberculosis, UniProt P9WMR3); assay: DnaB intein splicing inhibitors, dose response, biochemical, cell-free fluorescence (AID 449749)
# T4 sequence (P9WMR3 whole entry): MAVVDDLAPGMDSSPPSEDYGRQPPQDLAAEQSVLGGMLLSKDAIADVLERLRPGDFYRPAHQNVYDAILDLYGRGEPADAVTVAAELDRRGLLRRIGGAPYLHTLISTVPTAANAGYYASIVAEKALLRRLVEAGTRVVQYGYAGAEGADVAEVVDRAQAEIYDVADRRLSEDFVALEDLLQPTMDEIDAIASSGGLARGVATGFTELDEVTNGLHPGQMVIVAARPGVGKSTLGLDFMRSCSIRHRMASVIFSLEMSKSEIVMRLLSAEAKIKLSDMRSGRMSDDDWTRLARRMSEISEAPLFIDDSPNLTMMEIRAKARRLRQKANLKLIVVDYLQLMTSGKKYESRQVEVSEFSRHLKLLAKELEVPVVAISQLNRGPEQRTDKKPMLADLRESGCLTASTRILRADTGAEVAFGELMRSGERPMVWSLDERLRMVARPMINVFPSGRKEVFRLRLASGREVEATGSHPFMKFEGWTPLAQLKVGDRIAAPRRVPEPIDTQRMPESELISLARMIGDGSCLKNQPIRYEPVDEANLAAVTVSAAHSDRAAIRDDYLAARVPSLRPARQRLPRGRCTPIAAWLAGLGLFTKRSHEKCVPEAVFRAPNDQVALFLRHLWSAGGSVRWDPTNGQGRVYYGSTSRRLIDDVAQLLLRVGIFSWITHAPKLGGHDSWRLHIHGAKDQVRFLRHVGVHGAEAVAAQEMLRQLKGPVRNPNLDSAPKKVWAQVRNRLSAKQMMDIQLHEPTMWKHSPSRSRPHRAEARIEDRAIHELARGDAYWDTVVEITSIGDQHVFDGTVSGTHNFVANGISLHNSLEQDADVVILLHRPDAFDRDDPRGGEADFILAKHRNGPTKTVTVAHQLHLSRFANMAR
# Protein RecA = target: T5, Protein RecA (Mycobacterium tuberculosis, UniProt P9WHJ3); assay: Fluorescence Cell-Free Homogeneous Dose Retest to Identify Inhibitors of RecA-Intein Splicing Activity. [Related pubchem assays (depositor defined):AID2097, AID2223, AID489010, AID492950]
# T5 sequence (P9WHJ3 whole entry): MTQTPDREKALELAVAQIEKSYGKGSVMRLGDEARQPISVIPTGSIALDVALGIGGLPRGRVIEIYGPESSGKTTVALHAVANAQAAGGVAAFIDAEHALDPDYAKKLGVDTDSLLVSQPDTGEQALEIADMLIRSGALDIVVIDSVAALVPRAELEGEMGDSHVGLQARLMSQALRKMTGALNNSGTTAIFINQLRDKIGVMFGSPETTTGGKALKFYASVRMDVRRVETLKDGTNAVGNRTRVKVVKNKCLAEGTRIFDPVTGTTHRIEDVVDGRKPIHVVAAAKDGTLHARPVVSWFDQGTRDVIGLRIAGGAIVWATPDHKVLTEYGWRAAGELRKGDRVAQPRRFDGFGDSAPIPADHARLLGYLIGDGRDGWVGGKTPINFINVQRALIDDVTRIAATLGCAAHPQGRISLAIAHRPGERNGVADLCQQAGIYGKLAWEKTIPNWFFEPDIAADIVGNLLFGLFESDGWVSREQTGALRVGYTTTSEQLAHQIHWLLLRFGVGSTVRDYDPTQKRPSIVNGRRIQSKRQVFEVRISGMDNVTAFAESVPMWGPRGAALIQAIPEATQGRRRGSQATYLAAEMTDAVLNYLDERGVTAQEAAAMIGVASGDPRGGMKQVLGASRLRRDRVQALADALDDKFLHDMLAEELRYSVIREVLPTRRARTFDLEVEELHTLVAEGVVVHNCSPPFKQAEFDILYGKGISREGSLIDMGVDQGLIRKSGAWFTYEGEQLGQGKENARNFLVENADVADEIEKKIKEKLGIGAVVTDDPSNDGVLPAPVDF
# Chain of Voltage-dependent T-type calcium channel subunit alpha-1H (O95180 whole entry): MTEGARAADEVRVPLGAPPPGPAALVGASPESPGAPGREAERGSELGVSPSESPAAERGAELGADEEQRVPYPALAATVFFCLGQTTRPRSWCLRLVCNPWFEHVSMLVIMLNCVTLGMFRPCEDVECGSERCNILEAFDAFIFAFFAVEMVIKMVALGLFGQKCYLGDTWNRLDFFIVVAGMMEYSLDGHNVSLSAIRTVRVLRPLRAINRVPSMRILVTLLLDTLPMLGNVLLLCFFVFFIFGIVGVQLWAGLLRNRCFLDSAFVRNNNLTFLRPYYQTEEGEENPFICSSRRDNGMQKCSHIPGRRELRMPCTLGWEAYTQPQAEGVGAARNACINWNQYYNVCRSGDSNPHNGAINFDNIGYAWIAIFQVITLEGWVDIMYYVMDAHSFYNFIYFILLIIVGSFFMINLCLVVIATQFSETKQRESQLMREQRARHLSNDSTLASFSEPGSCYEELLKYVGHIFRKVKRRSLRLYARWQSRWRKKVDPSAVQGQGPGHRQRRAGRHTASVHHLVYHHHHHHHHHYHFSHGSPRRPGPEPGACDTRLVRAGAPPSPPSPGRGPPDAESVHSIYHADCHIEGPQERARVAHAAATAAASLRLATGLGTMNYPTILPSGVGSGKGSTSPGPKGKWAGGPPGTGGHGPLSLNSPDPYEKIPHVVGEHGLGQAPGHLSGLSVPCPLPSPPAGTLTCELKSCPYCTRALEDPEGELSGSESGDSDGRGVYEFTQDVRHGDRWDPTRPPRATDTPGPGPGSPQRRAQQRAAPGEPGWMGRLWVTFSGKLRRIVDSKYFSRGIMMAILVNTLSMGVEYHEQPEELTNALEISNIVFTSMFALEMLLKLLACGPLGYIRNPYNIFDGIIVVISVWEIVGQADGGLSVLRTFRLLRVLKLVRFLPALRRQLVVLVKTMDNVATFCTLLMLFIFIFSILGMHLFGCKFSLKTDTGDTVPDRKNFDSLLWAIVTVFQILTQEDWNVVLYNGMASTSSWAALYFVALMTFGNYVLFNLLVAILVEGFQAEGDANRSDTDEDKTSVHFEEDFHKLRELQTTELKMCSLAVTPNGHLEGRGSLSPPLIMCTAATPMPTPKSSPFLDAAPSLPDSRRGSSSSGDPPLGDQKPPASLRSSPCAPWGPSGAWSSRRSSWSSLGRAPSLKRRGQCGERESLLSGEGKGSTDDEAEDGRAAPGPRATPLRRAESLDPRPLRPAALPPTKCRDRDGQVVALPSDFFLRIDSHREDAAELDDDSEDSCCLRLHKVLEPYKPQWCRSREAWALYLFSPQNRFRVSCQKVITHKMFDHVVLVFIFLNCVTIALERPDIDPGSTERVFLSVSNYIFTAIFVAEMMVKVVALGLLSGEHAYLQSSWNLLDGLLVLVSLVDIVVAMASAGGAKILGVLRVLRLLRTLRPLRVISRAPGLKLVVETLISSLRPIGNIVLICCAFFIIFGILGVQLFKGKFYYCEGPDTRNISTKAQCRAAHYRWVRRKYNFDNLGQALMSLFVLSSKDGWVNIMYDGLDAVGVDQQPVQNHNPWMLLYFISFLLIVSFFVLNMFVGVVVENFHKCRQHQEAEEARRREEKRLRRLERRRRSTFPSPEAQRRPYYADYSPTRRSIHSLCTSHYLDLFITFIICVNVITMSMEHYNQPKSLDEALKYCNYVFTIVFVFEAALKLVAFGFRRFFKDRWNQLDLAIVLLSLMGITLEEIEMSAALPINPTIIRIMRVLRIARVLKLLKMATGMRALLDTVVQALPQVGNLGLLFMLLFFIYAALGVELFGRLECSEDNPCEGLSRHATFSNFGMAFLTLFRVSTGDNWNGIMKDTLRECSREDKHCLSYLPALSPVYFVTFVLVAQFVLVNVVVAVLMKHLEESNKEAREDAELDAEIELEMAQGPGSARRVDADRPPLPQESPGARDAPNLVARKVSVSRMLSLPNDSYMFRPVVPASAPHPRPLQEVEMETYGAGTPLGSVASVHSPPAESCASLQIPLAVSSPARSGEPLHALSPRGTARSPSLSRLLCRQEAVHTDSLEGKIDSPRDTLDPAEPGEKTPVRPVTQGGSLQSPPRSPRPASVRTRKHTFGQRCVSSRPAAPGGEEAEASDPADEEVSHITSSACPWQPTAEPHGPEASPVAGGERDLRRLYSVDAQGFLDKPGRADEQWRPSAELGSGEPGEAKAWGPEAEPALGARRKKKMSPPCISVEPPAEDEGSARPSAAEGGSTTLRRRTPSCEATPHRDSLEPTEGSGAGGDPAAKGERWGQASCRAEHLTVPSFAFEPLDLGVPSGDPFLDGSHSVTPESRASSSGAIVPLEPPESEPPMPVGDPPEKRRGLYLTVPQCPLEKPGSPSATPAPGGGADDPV
# T3 sequence (P11940 whole entry, the tested form may be a part): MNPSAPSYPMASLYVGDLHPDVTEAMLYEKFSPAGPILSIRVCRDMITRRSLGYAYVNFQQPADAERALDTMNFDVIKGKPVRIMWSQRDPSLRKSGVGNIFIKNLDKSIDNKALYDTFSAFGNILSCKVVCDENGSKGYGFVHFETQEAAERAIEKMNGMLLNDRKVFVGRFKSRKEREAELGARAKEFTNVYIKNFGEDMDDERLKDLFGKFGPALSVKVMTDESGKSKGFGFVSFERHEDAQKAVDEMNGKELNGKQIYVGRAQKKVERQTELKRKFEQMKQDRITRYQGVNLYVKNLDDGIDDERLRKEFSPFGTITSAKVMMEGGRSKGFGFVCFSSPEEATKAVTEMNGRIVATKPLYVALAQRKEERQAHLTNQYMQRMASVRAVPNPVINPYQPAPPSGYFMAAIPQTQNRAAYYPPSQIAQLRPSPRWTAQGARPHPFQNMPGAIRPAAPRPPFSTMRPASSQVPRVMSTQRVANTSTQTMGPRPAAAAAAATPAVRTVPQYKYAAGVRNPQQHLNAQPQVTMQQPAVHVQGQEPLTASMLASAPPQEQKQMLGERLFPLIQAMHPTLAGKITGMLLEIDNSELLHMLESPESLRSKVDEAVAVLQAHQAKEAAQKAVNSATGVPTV
structure (smiles),measurement,setting,value
c1ccc(-c2noc(CSc3nnc(Cc4cccs4)n3-c3ccccc3)n2)cc1,EC50,[1],4.16 µM (active)
O=C(C1CCCN(S(=O)(=O)c2ccc(Cl)cc2)C1)N(Cc1cccs1)C1CC1 (centres undefined),EC50,[1],6.78 µM (active)
same,EC50,[2],> 195 µM (not active)
CN1/C(=C\C(=O)CN2C(=O)NC3(CCCCCC3)C2=O)C(C)(C)c2ccccc21,EC50,[1],27.4 µM (active)
same,AC50,INS1,4.56 µM (active)
same,AC50,[3],12.3 µM (active)
same,AC50,[4],2.66 µM (active)
O=C(c1cc2sccc2n1Cc1ccccc1)N1CCCc2ccccc21,EC50,[1],5.98 µM (active)
Cc1ccccc1Cn1c(=O)n(CC2CCC(C(=O)NCCc3ccccc3)CC2)c(=O)c2ccccc21 (centres undefined),EC50,[5],13.3 µM (active)
same,IC50,[6],20.7 µM (not active)
same,EC50,[7],17 µM (active)
N#CCCN(C(=O)CSc1ccc2c(c1)OCCO2)c1ccccc1,IC50,[8],> 66 µM (inactive)
same,IC50,[9],> 66 µM (inactive)
CCCc1nc2ccccc2n1CCOc1ccccc1,EC50,[1],8.61 µM (active)
COc1cccc(Nc2nc(N)c([N+](=O)[O-])c(NCc3ccco3)n2)c1,IC50,[6],7.89 µM (not active)
same,CC50,[10],15.8 µM (active)
Cn1c(CSc2nc3ccccc3s2)nc2ccccc21,EC50,[11],43.2 µM (active)
same,EC50,[12],2.94 µM (active)
same,EC50,[1],17.4 µM (active)
same,EC50,H4,19.9 µM (active)
CC(=O)c1c(Cl)nc2cccc3c2c1-c1ccccc1C3=O,AC50,[13],> 380 µM (inactive)
same,IC50,[8],> 66 µM (inactive)
same,IC50,[9],55.6 µM (inactive)
same,EC50,Protein RecA,0.297 µM (inconclusive)
